Data reported in US20250353864A1, “INDAZOLE CONTAINING MACROCYCLES AND THEIR USE” (BLOSSOMHILL THERAPEUTICS, INC., priority 2022, published 2025).

What was measured:
Format in all cases: biochemical
[1] = target: EGFR L858R/T790M mutant (Homo sapiens (Human), UniProt P00533, L858R/T790M); assay: HotSpot radiometric kinase assay, EGFR L858R/T790M mutant; settings: 10 μM ATP
Method in brief: (§1)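 IC50 values derive from curve fits of 33P incorporation measured by P81 filter binding. ATP was 10 μM final; incubation lasted 120 min at room temperature after ~20 min compound preincubation.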

[2] = target: EGFR L858R/T790M/C797S mutant (Homo sapiens (Human), UniProt P00533, C797S/L858R/T790M); assay: HotSpot radiometric kinase assay, EGFR L858R/T790M/C797S mutant; settings: 10 μM ATP
Method in brief: as §1

[3] = target: CLK3 (Homo sapiens (Human), UniProt P49761); assay: Inhibition of CLK3 kinase activity evaluated at Nanosyn (ADP-Glo); settings: ADP-Glo luminescence
Procedure: (§2) Inhibition of CLK, CLK2, CLK3 and CLK4 Kinase Activity Evaluated at Nanosyn
(§3) Kinase protein and substrate were pre-diluted in the HEPES assay buffer (100 mM HEPES, pH 7.5, 0.01% Triton X-100, 0.1% BSA, 5 mM MgCl2, […] DTT, 10 Sodium Orthovanadate, […] Beta-Glycerophosphate) dispensed into 384 well plate (5 μL per well). Control samples (0%-inhibition in the absence of inhibitor, DMSO only) and 100%-inhibition (in the absence of enzyme) were assembled in replicates of six and were used to calculate %-inhibition in the presence of compounds. Test compounds were added to the protein samples by acoustic dispensing (Labcyte Echo550). Concentration of DMSO was equalized to 1% in all samples. Reactions were initiated by addition of ATP by acoustic dispensing (Labcyte Echo550) and incubated according to assay specific incubation time. After incubation. 5 μL of Promega ADP-Glo reagent was added and incubated for 40 minutes. After 40 minutes, 10 uL of Promega kinase detection reagent was added. After 10 min of incubation with Kinase detection reagent, the luminescence was read on microplate reader (Biotek Synergy).

[4] = target: EGFR Δ746-750 mutant (Homo sapiens (Human), UniProt P00533, DEL746-750); assay: HotSpot radiometric kinase assay, EGFR Δ746-750 mutant; settings: 10 μM ATP
Method in brief: as §1

[5] = target: EGFR Δ746-750/C797S mutant (Homo sapiens (Human), UniProt P00533, C797S/DEL746-750); assay: HotSpot radiometric kinase assay, EGFR Δ746-750/C797S mutant; settings: 10 μM ATP
Method in brief: as §1

[6] = target: CLK2 (Homo sapiens (Human), UniProt P49760); assay: Inhibition of CLK2 kinase activity evaluated at Nanosyn (ADP-Glo); settings: ADP-Glo luminescence
Procedure: as §2, §3

[7] = target: EGFR (D770_N771insNPG) (Homo sapiens (Human), UniProt P00533, INS770NPG); assay: HotSpot radiometric kinase assay, EGFR (D770_N771insNPG); settings: 10 μM ATP, read-out: EGFR (Δ770_N771insNPG) IC50
Method in brief: as §1

[8] = target: EGFR L858R mutant (Homo sapiens (Human), UniProt P00533, L858R); assay: HotSpot radiometric kinase assay, EGFR L858R mutant; settings: 10 μM ATP
Method in brief: as §1

[9] = target: EGFR WT (Homo sapiens (Human), UniProt P00533); assay: HotSpot radiometric kinase assay (Reaction Biology), EGFR WT; settings: 10 μM ATP
Method in brief: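 Kinase, substrate and cofactors are mixed in 20 mM Hepes pH 7.5 with 10 mM MgCl2, 1 mM EGTA, 2 mM DTT and 1% DMSO. Compound is added, and about 20 min later ATP/33P-ATP (10 μM final) starts a 120-min room-temperature reaction, which is then spotted onto P81 paper.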

[10] = target: CLK1 (Homo sapiens (Human), UniProt P49759); assay: Inhibition of CLK1 kinase activity evaluated at Nanosyn (ADP-Glo); settings: ADP-Glo luminescence
Procedure: as §2, §3

[11] = target: CLK4 (Homo sapiens (Human), UniProt Q9HAZ1); assay: Inhibition of CLK4 kinase activity evaluated at Nanosyn (ADP-Glo); settings: ADP-Glo luminescence
Procedure: as §2, §3

EGFR WT, sequence (P00533 25-1210): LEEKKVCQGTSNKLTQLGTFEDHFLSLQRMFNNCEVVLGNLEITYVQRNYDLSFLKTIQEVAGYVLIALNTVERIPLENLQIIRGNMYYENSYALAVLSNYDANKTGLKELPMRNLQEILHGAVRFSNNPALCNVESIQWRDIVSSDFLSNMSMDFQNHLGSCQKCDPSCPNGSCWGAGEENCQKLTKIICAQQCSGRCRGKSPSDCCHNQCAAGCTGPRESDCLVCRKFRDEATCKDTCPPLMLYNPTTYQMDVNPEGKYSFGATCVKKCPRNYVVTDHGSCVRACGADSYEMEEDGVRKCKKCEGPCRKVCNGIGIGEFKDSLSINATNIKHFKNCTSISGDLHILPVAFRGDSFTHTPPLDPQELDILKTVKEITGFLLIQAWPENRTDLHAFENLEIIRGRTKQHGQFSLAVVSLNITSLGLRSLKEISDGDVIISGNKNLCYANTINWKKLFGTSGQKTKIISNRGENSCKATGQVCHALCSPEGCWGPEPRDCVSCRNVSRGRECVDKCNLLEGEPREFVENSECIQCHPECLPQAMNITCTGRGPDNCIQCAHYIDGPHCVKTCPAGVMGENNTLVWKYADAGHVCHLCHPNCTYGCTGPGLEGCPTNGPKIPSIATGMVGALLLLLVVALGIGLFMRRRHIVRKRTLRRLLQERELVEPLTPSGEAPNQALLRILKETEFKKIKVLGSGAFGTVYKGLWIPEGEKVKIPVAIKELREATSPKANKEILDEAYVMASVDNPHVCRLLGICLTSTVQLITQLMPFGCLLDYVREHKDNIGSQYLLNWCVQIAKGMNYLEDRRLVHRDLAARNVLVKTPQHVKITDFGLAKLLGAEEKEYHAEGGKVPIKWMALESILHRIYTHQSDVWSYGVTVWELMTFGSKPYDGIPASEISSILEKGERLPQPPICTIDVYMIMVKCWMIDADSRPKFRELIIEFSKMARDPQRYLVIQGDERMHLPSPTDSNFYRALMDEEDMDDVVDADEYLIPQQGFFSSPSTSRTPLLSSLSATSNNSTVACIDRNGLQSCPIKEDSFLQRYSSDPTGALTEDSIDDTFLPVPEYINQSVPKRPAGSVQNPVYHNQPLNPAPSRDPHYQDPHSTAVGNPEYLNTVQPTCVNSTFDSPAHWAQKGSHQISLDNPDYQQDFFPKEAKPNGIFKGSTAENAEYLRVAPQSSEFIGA
EGFR (D770_N771insNPG), sequence (P00533 other isoform, or with tags, fused parts or gaps del 1-668/ins NPG behind 770 limits assumed): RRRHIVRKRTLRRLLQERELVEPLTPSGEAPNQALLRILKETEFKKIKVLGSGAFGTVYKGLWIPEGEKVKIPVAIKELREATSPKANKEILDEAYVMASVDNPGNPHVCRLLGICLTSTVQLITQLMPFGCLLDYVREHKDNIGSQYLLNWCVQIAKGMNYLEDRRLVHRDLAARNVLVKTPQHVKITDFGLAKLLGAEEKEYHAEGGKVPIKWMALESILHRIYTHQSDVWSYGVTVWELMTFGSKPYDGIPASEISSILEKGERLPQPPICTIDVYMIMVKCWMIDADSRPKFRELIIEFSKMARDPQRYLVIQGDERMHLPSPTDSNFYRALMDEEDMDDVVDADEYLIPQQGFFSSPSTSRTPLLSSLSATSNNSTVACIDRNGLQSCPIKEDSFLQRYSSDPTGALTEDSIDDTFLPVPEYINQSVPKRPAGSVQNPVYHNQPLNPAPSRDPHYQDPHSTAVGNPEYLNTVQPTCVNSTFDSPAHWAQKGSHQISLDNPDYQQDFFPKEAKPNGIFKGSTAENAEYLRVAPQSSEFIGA
CLK3, sequence (P49761 whole entry): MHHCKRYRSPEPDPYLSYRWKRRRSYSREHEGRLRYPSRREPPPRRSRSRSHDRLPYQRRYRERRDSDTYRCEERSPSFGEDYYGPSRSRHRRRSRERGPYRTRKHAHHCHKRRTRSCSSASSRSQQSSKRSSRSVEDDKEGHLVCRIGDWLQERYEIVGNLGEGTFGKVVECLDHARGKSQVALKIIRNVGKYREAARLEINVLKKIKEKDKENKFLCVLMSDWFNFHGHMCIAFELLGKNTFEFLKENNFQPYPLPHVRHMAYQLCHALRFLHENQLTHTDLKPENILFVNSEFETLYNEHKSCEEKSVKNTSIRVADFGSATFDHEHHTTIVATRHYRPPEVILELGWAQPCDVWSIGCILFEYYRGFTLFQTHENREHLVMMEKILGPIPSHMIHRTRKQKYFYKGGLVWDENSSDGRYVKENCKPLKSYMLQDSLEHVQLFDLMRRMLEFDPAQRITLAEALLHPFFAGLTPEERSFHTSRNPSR
EGFR Δ746-750 mutant, sequence (P00533 other isoform, or with tags, fused parts or gaps del 1-668/del 746-750 limits assumed): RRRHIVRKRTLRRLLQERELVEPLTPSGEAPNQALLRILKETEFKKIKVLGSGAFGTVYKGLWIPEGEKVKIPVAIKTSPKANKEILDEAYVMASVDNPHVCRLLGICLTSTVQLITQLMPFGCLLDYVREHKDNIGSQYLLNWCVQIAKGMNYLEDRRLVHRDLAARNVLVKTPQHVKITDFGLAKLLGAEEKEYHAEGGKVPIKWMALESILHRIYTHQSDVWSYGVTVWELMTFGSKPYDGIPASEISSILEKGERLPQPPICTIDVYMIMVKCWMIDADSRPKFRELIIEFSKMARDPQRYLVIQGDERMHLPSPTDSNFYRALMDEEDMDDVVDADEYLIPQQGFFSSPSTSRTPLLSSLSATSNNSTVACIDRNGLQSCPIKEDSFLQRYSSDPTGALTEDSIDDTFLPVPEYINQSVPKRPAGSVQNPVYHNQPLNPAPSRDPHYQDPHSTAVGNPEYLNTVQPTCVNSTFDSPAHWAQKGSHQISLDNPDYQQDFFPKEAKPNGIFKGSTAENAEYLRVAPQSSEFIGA
CLK2, sequence (P49760 whole entry): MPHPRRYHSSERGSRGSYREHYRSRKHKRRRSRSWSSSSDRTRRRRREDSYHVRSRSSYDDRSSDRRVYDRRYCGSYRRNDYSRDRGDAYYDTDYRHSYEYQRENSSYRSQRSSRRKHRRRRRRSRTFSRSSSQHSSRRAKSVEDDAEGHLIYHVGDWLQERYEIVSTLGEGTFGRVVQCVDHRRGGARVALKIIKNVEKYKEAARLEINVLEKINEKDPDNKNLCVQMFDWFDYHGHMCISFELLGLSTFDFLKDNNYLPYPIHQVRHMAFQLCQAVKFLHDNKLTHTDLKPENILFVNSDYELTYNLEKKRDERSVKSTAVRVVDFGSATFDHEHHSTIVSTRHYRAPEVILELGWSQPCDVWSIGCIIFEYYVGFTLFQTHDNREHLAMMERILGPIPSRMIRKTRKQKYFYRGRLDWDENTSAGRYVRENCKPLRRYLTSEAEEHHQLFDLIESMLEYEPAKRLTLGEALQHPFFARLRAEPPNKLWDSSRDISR
CLK4, sequence (Q9HAZ1 whole entry): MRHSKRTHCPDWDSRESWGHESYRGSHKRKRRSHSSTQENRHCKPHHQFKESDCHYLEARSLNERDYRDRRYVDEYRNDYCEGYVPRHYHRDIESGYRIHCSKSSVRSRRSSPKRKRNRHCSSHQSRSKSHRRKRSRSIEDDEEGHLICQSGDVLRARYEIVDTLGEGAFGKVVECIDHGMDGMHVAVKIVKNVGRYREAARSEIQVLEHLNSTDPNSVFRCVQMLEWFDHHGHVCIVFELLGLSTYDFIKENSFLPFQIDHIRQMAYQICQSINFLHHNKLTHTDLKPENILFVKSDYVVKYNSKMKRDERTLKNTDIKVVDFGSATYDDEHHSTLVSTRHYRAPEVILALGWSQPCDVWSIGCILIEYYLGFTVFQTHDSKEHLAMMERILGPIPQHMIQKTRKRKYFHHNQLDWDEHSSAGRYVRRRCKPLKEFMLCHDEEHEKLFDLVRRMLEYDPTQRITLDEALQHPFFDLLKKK
EGFR Δ746-750/C797S mutant, sequence (P00533 other isoform, or with tags, fused parts or gaps C797S/del 1-668/del 746-750 limits assumed): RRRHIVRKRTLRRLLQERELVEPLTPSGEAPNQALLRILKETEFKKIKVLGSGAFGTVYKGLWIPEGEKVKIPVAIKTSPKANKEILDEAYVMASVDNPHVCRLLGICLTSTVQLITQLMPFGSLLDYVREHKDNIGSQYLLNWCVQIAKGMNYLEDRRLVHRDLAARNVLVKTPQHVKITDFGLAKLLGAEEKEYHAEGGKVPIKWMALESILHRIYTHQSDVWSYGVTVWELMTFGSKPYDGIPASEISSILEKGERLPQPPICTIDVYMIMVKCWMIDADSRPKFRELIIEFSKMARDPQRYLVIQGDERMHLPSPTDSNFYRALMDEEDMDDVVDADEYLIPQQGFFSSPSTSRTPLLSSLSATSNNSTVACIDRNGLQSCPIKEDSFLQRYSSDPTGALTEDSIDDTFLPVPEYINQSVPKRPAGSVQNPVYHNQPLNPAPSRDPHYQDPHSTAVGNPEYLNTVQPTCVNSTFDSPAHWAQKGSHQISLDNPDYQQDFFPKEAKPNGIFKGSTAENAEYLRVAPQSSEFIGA
CLK1, sequence (P49759 whole entry): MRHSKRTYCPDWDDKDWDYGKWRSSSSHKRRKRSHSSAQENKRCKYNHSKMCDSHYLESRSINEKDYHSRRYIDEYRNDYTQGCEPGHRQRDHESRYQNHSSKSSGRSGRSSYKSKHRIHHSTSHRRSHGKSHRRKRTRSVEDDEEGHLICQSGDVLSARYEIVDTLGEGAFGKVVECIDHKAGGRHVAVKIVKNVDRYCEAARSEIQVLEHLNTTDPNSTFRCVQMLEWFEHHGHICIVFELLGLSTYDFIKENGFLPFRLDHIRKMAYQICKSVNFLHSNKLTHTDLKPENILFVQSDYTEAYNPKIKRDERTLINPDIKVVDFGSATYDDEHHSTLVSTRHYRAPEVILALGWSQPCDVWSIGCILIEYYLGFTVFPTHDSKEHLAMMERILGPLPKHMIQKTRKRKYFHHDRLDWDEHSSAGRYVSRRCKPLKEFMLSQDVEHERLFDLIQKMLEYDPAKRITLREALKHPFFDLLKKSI

Structure (SMILES) | IC50 [1] [nM] | IC50 [2] [nM] | IC50 [3] [nM] | IC50 [4] [nM] | IC50 [5] [nM] | IC50 [6] [nM] | IC50 [7] [nM] | IC50 [8] [nM] | IC50 [9] [nM] | IC50 [10] [nM] | IC50 [11] [nM]
CCOc1nn(CCO)c2c1/C=C/c1n[nH]c3ccc(cc13)-c1c(C)nn(C)c1O[C@@H](C)CN(C(C)C)C2 [Example 142, 2-[(10S,17E)-16-ethoxy-6,8,10-trimethyl-12-(propan-2-yl)-2,8,10,11,12,13-hexahydro-14H-3,5-ethenotripyrazolo[3,4-f:3′,4′-j:4″,3″- n][1,4]oxazacyclopentadecin-14-yl]ethan-1-ol] | 1.29 | 1.83 | 1000 | 1.11 | 1.32 | 13.9 | 16.7 | 0.9 | 2.14 | 11.9 | 5.91
Cc1nn(CCO)c2c1/C=C/c1n[nH]c3cc(F)c(cc13)-c1cnn(C)c1O[C@@H](C)CN(C)C2 [Example 116, 2-[(10S,17E)-19-fluoro-8,10,12,16-tetramethyl-2,8,10,11,12,13-hexahydro-14H-3,5-ethenotripyrazolo[3,4-f:3′,4′-j:4″,3″-n][1,4]oxazacyclopentadecin-14-yl]ethan-1-ol] | 0.38 | 2.71 | 10.9 | 1.06 | 2.85 | 0.04 | 18.5 | 0.58 | 3.98 | 0.11 | 0.4
Cc1nn(C)c2c1/C=C/c1n[nH]c3ccc(cc13)-c1cnn(C)c1O[C@H]1CCCN(C2)C1 [Example 176, (10S,19E)-8,16,18-trimethyl-2,8,10,11,12,13,15,16-octahydro-3,5-etheno-10,14-methanotripyrazolo[3,4-h:3′,4′-l:4″,3″- p][1,6]oxazacycloheptadecine] | 6.94 | 13.1 | 1000 | 24.9 | 35.2 | 11.8 | 83.4 | 55.5 | 152 | 1.54 | 1.44
CCOc1nn([C@@H](C)CO)c2c1/C=C/c1n[nH]c3ccc(cc13)-c1cnn(C)c1O[C@@H](C)CN(C)C2 [Example 155] | 0.45 | 0.62 | 87.4 | 0.62 | 0.86 | 0.14 | 6.36 | 0.34 | 1.74 | 0.43 | 0.81
CCc1noc2c1/C=C/c1n[nH]c3ccc(cc13)-c1cnn(C)c1O[C@@H](C)CN(C)C2 [Example 174, (10S,17E)-16-ethyl-8,10,12-trimethyl-2,8,10,11,12,13-hexahydro-3,5-etheno[1,2]oxazolo[5,4-f]dipyrazolo[3,4-j:4′,3′-n][1,4]oxazacyclopentadecine] | 10.9 | 4.88 | 128 | 133 | 27.2 | 0.21 | 996 | 127 | 752 | 0.16 | 0.51
CCOc1nn(CC(C)(C)O)c2c1/C=C/c1n[nH]c3ccc(cc13)-c1cnn(C)c1O[C@@H](C)CN(CC)C2 [Example 222, 1-[(10S,17E)-16-ethoxy-12-ethyl-8,10-dimethyl-2,8,10,11,12,13-hexahydro-14H-3,5-ethenotripyrazolo[3,4-f:3′,4′-j:4″,3″-n][1,4]oxazacyclopentadecin-14-yl]-2-methylpropan-2-ol] | 0.31 | 0.18 | 306 | 1.77 | 2.17 | 3.17 | 57.8 | 4.75 | 27.8 | 2.31 | 2.46
C[C@H]1CN(C)Cc2c(c(OCC(F)(F)F)nn2CCO)/C=C/c2n[nH]c3cc(F)c(cc23)-c2cnn(C)c2O1 [Example 211, 2-[(10S,17E)-19-fluoro-8,10,12-trimethyl-16-(2,2,2-trifluoroethoxy)-2,8,10,11,12,13-hexahydro-14H-3,5-ethenotripyrazolo[3,4-f:3′,4′-j:4″,3″- n][1,4]oxazacyclopentadecin-14-yl]ethan-1-ol] | > 1000 | > 1000 | 1 | > 1000 | 2870 | 114 | > 1000 | 400 | > 1000 | 270 | 397

Continued, values first:

IC50 [1] [nM] | IC50 [2] [nM] | IC50 [3] [nM] | IC50 [4] [nM] | IC50 [5] [nM] | IC50 [6] [nM] | IC50 [7] [nM] | IC50 [8] [nM] | IC50 [9] [nM] | IC50 [10] [nM] | IC50 [11] [nM] | Structure (SMILES)
1.91 | 5.35 | 168 | 1.31 | 2.29 | 0.42 | 15.7 | 2.38 | 4.74 | 0.83 | 1.59 | CC(C)Oc1nn(CCO)c2c1/C=C/c1n[nH]c3ccc(cc13)-c1cnn(C)c1O[C@@H](C)[C@H]1CCCN1C2 [Example 252, 2-[(8aR,9S,19E)-9,11-dimethyl-1-[(propan-2-yl)oxy]-7,8,8a,9,11,17-hexahydro-6H-14,16-ethenotripyrazolo[3,4-f:3′,4′-j:4″,3″-n]pyrrolo[2,1-c][1,4]oxazacyclopentadecin-3(4H)-yl]ethan-1-ol]
45.5 | 27.4 | 1000 | 533 | 127 | 0.89 | > 1000 | 513 | > 1000 | 0.7 | 1.26 | C[C@H]1CN(C)Cc2onc(C3CC3)c2/C=C/c2n[nH]c3ccc(cc23)-c2cnn(C)c2O1 [Example 173, (10S,17E)-16-cyclopropyl-8,10,12-trimethyl-2,8,10,11,12,13-hexahydro-3,5-etheno[1,2]oxazolo[5,4-f]dipyrazolo[3,4-j:4′,3′-n][1,4]oxazacyclopentadecine]
0.7 | 1.02 | 541 | 18.6 | 2.42 | 2.13 | 127 | 7.63 | 44.1 | 0.82 | 2.03 | CCN1Cc2nn(C)c(C)c2/C=C/c2n[nH]c3ccc(cc23)-c2cnn(C)c2O[C@@H](C)C1 [Example 59, (10S,17E)-12-ethyl-8,10,15,16-tetramethyl-2,10,11,12,13,15-hexahydro-8H-3,5-ethenotripyrazolo[3,4-f:3′,4′-j:4″,3″-n][1,4]oxazacyclopentadecine]
0.9 | 3.19 | 361 | 3.5 | 3.74 | 5.21 | 25.3 | 4.55 | 13.6 | 4.9 | 3.15 | CCOc1nn(CCO)c2c1/C=C/c1n[nH]c3ccc(cc13)-c1cnn(C)c1O[C@@H](CC)CN(C)C2 [Example 260, 2-[(10S,17E)-16-ethoxy-10-ethyl-8,12-dimethyl-2,8,10,11,12,13-hexahydro-14H-3,5-ethenotripyrazolo[3,4-f:3′,4′-j:4″,3″-n][1,4]oxazacyclopentadecin-14-yl]ethan-1-ol]
64.4 | 43.9 | 19.3 | 147 | 42.5 | 2.29 | > 1000 | 87.8 | 1280 | 1.05 | 1.79 | CC(C)Oc1nn(CCO)c2c1/C=C/c1n[nH]c3cc(F)c(cc13)-c1cnn(C)c1O[C@@H]1CCCN(C2)C1 [Example 199, 2-[(10R,19E)-22-fluoro-8-methyl-18-[(propan-2-yl)oxy]-2,10,11,12,13,15-hexahydro-3,5-etheno-10,14-methanotripyrazolo[3,4-h:3′,4′-l:4″,3″- p][1,6]oxazacycloheptadecin-16(8H)-yl]ethan-1-ol]
